Assay results taken from ChEMBL document CHEMBL1156959, “Potent ketoamide inhibitors of HCV NS3 protease derived from quaternized P1 groups” (Bioorg Med Chem Lett, 2010).

Tests used:
Hepatitis C virus [1] = test: Antiviral activity against Hepatitis C virus genotype 1 assessed as Inhibition of RNA replication transfected in human hepatoma cells; format: functional, Hepacivirus hominis
Hepatitis C virus [2] = test: Inhibition of Hepatitis C virus genotype 1 NS3 protease; format: functional

EC90 (Hepatitis C virus [1]) | Compound | Ki (Hepatitis C virus [2])
1600 nM | CC[C@@H]1C[C@@]1(NC(=O)[C@@H]1[C@@H]2[C@H](CN1C(=O)[C@@H](NC(=O)N[C@H](CN1C(=O)CC(C)(C)CC1=O)C(C)(C)C)C(C)(C)C)C2(C)C)C(=O)C(N)=O | 0.058 nM
 | CC(C)(C)[C@H](NC(=O)NC1(CS(=O)(=O)C(C)(C)C)CCCCC1)C(=O)N1C[C@H]2[C@@H]([C@H]1C(=O)NC1(C(=O)C(=O)NC3CC3)CC1)C2(C)C | 18 nM
 | C[C@@H]1C[C@@]1(NC(=O)[C@@H]1[C@@H]2[C@H](CN1C(=O)[C@@H](NC(=O)NC1(CS(=O)(=O)C(C)(C)C)CCCCC1)C(C)(C)C)C2(C)C)C(=O)C(=O)NC1CC1 | 3 nM
 | CC[C@@H]1C[C@@]1(NC(=O)[C@@H]1[C@@H]2[C@H](CN1C(=O)[C@@H](NC(=O)NC1(CS(=O)(=O)C(C)(C)C)CCCCC1)C(C)(C)C)C2(C)C)C(=O)C(=O)NC1CC1 | 0.11 nM
 | CCC[C@@H]1C[C@@]1(NC(=O)[C@@H]1[C@@H]2[C@H](CN1C(=O)[C@@H](NC(=O)NC1(CS(=O)(=O)C(C)(C)C)CCCCC1)C(C)(C)C)C2(C)C)C(=O)C(=O)NC1CC1 | 0.7 nM
 | CC(C)(C)[C@H](NC(=O)NC1(CS(=O)(=O)C(C)(C)C)CCCCC1)C(=O)N1C[C@H]2[C@@H]([C@H]1C(=O)NC1(C(=O)C(=O)NC3CC3)CCC1)C2(C)C | 15 nM
500 nM | CC[C@@H]1C[C@@]1(NC(=O)[C@@H]1[C@@H]2[C@H](CN1C(=O)[C@@H](NC(=O)N[C@H](CN1C(=O)CC(C)(C)CC1=O)C(C)(C)C)C(C)(C)C)C2(C)C)C(=O)C(=O)NC1CC1 | 0.082 nM
2700 nM | CC[C@@H]1C[C@@]1(NC(=O)[C@@H]1[C@@H]2[C@H](CN1C(=O)[C@@H](NC(=O)N[C@H](CN(C)S(C)(=O)=O)C(C)(C)C)C(C)(C)C)C2(C)C)C(=O)C(=O)NC1CC1 | 0.2 nM
 | CC[C@@H]1C[C@@]1(NC(=O)[C@@H]1[C@@H]2[C@H](CN1C(=O)[C@@H](NC(=O)NC1([C@@H](C)S(=O)(=O)C(C)(C)C)CCCCC1)C1(C)CCCCC1)C2(C)C)C(=O)C(=O)NC1CC1 | 0.95 nM
 | CC[C@@H]1C[C@@]1(NC(=O)[C@@H]1[C@@H]2[C@H](CN1C(=O)[C@@H](NC(=O)NC1([C@@H](C)S(=O)(=O)C(C)(C)C)CCCCC1)C1Cc3ccccc3C1)C2(C)C)C(=O)C(=O)NC1CC1 | 0.5 nM
 | CC[C@@H]1C[C@@]1(NC(=O)[C@@H]1[C@@H]2[C@H](CN1C(=O)[C@@H](NC(=O)NC1(CS(=O)(=O)C(C)(C)C)CCCCC1)C1CCCCC1)C2(C)C)C(=O)C(=O)NC1CC1 | 0.6 nM
400 nM | CC[C@@H]1C[C@@]1(NC(=O)[C@@H]1[C@@H]2[C@H](CN1C(=O)[C@@H](NC(=O)N[C@H](CN1C(=O)CC(C)(C)CC1=O)C(C)(C)C)C1(C)CCCCC1)C2(C)C)C(=O)C(N)=O | 0.023 nM
400 nM | CC[C@@H]1C[C@@]1(NC(=O)[C@@H]1[C@@H]2[C@H](CN1C(=O)[C@@H](NC(=O)NC1([C@@H](C)S(=O)(=O)C(C)(C)C)CCCCC1)C1(C)CCCCC1)C2(C)C)C(=O)C(N)=O | 0.015 nM
 | CC(C)(C)[C@H](NC(=O)NC1(CS(=O)(=O)C(C)(C)C)CCCCC1)C(=O)N1C[C@H]2[C@@H]([C@H]1C(=O)NC1(C(=O)C(=O)NC3CC3)CC(O)C1)C2(C)C (stereo partly drawn) | 89 nM
 | CC1CC(NC(=O)[C@@H]2[C@@H]3[C@H](CN2C(=O)[C@@H](NC(=O)NC2(CS(=O)(=O)C(C)(C)C)CCCCC2)C(C)(C)C)C3(C)C)(C(=O)C(=O)NC2CC2)C1 (stereo partly drawn) | 0.42 nM
 | CCC1CC(NC(=O)[C@@H]2[C@@H]3[C@H](CN2C(=O)[C@@H](NC(=O)NC2(CS(=O)(=O)C(C)(C)C)CCCCC2)C(C)(C)C)C3(C)C)(C(=O)C(=O)NC2CC2)C1 (stereo partly drawn) | 0.19 nM
350 nM | CC(C)(C)NC(=O)N[C@H](C(=O)N1C[C@H]2[C@@H]([C@H]1C(=O)NC(CC1CCC1)C(=O)C(N)=O)C2(C)C)C(C)(C)C (stereo partly drawn) [BOCEPREVIR] | 14 nM
